In US7129218B2, “Use of rhamnolipids in wound healing, treatment and prevention of gum disease and periodontal regeneration” (Paradigm Biomedical, Inc., priority 1999, dated 2006):

Test system: burn wounds
Assay: Burn wounds, 7% body surface, topical treatment (rats)
Format: in vivo, Sprague-Dawley rats
Conditions: for mean value of collagen tissue: histopathology day 45; for mean value of collagen concentration relative to placebo group 1 D taken as 100%: day 45
Protocol: The wounding of animals was performed according to the Protocol for Animal Use and Care at the University of California-Davis (hereafter UC-Davis). The entire animal protocol required 70 Sprague-Dawley rats: 30 rats for incision wounds and 40 rats for burn wounds. Among them 36 rats were burned over 7% of their skin and 4 rats were burned over 15% of their skin. Incision wounds of whole skin and burn wounds were treated topically with 2 test doses of the pharmaceutical preparation of di-rhamnolipid BAC-3. […] D.E.A. Hamburg); 23.8 g Lanolinum (Producer I.O.I. Hamburg); 4.7 g Cholesterin (Producer: Solvay, Wiena, Austria); Water Number: 320); or b). 1%; 0.1% active rhamnolipid (BAC-3) with antiseptic (chlorhexidine hydrochloride-[…]). Eucerin with BAC-3 was administrated twice daily during healing. The same experiment had one control group without the treatment, and one control group which was treated with ointment+1% chlorhexidine hydrochloride. During the experiment, animal body weight and behavior was checked every third day, and photographs were taken periodically. Burn wounds. The consecutive burn wounds should ideally be identical in depth and extent. The standard method defines the size and location of the burn wound, the temperature gradient, duration of exposure and method of applying the burn. The wound surface areas tested were of two different sizes. One size to 7% of the body surface, which enables one to compare the rate of wound healing with different percentage of BAC-3 and the other size to 15% of the body surface, which is a sufficient size so that healing could not occur by contraction alone. On the other hand, the total wound surface area should not cause major systematic problems. The latter can be concluded from undisturbed weight gain of the animals. The standard animal burn was performed by techniques and device described by Walker. The burning devices were prepared using a model device ordered from U.S. Army Surgical Research Unit, Experimental Surgery, Army Medical Center, Fort Sam Houston, Tex. 78234. […] The surface of the skin was measured for every animal using Mech's formula: A=kW^2/3; A=surface area in cm^2; W=body weight in grams; k=10. Method of burning. Each animal was anesthetized with sodium pentobarbital administered i/p (5 mg/25 g). (Producer: Veterinary Laboratory Inc. Lenexa, Kans.). The hair over the dorsum was clipped with animal clippers. The animal was placed supine in the burning device and the extremities were tied; the malleable retractor was placed over the animal and secured snugly with plastic straps. The entire device was then picked up by the retractor ends with forceps and the exposed area was immersed in boiling water. Ten seconds of exposure was sufficient to produce a full-thickness burn. On removal from the water, the dorsum was quickly dried by rolling on a towel and the animal was released and individually caged. This procedure produced a uniform burn with sharp margins. On post burn days 7, 14 and 45, animals were sacrificed by overdose of sodium pentobarbital and skin specimens were taken for histopathology. Specimens included the wound bed as well as the healthy skin of the wound margins. The specimens were fixed, and two stainings were routinely performed: Hematoxylin-Eosin (H&E) for microscopic evaluation, Verhoeff's staining for a better visualization of the crust and the regenerating dermis, and the alpha smooth muscle acting to identify the myofibroblasts. Microscopic findings were interpreted by a veterinarian pathologist. During the microscopic and macroscopic observations, four wound healing parameters were evaluated: crust formation, re-epithelialization, formation of granulation tissue and inflammation. 36 rats were divided into 6 groups. Each group had six animals. After burning rats according to the above-described procedure, each rat was caged individually. […]

## CCCCCCCC(CC(=O)O)OC(=O)CC(CCCCCCC)OC1OC(C)C(O)C(O)C1OC1OC(C)C(O)C(O)C1O [BAC-3, (α-L-rhamnopyranosyl-(1,2)-α-L-rhamnopyranosyl)-3-hyroxydecanoyl-3-hydroxydecanoic acid]
1% and 0.1% BAC-3 in eucerin vs vehicle, 45 days
  body weights among the treatment groups: no significant differences
7% burn, 0.1% BAC-3 in eucerin twice daily, no chlorhexidine, FIG. 1
  rate of burn wound closure (decrease in wound size) vs vehicle alone: significantly faster
7% burn, 0.1% BAC-3 in eucerin, days 14, 21 and 28, p<0.05 by ANOVA, FIG. 2
  burn wound size (distance across wound edges) vs vehicle alone: significantly smaller
7% burn, BAC-3 1% or 0.1% ointment with or without chlorhexidine vs placebo, 45 days
  crust formation, difference between groups: no significant differences
7% burn, group 1-A, 1% BAC-3 in ointment twice daily
  granulation tissue: prominently developed
7% burn, group 1-B, 0.1% BAC-3 in ointment twice daily
  re-epithelization in the middle part of the burn wounds: faster
7% burn, group 1 A, 1% BAC-3 ointment, no chlorhexidine
  mean value of collagen tissue: 8.48 mm^2
7% burn, group 1 B, 0.1% BAC-3 ointment, no chlorhexidine
  mean value of collagen tissue: 5.15 mm^2
7% burn, group 2-A, 1% BAC-3 in ointment plus 1% chlorhexidine hydrochloride twice daily
  granulation tissue: prominently developed
7% burn, group 2-B, 0.1% BAC-3 in ointment plus 1% chlorhexidine hydrochloride twice daily
  re-epithelization in the middle part of the burn wounds: faster
Group 1-A, 1% BAC-3 in ointment, compared to the other groups
  hair growth during the healing period: very prominent
Group 1 A, 1% BAC-3
  mean value of collagen concentration relative to placebo group 1 D taken as 100%: 131.26%
Group 1 B, 0.1% BAC-3
  mean value of collagen concentration relative to placebo group 1 D taken as 100%: 79.72%
